Data on three molecules can be found in patent publication US7951530B2, “Cyclic maltosylmaltose, cyclic maltosymaltose-forming enzyme, their preparation and uses” (Kabushiki Kaisha Hayashibara Seibutsu Kagaku Kenkyujo, priority 2003, dated 2011).

The test system of one data set is CMM-forming enzyme. In words: Action on various saccharides (substrate specificity, TLC). The format is biochemical, Arthrobacter globiformis M6. Also noted: key: “−” means “Not changed”; “+” means “Spot of substrate is slightly decreased and other products are detected”; “++” means “Spot of substrate is markedly decreased and other products are detected”; “+++” means “Spot of substrate is virtually disappeared and other products are detected”. The settings on record: substrate 2% (w/v), one unit/g-substrate enzyme, 40° C., pH 6.0, 24 hours, TLC before and after reaction. The protocol: Substrate specificity of CMM-forming enzyme of the present invention was investigated using various saccharides as substrates. Substrate solutions were prepared by dissolving maltose, maltotriose, maltotetraose, maltopentaose, maltohexaose, maltoheptaose, neotrehalose, trehalose, kojibiose, nigerose, […] isomaltose, isomaltotriose, panose, isopanose, maltitol, maltotriitol, α-, β- or γ-cyclodextrin, amylose, soluble starch, glycogen, pullulan or dextran into water. Each substrate solution was admixed with acetate buffer (pH 6.0) and CaCl2 to give final concentrations of 20 mM and 1 mM, respectively. […] Substrate concentration was set to 2% (w/v) and followed by the enzyme reaction at 40° C. and pH 6.0 for 24 hours. Action and the specificity of the enzyme on these saccharides were confirmed by analyzing the reaction mixture before and after the reaction by TLC described in Experiment 1.

A further data set addresses T1, Salivary α-amylase (Homo sapiens, UniProt P0DUB6).
T1 sequence (P0DUB6 16-511): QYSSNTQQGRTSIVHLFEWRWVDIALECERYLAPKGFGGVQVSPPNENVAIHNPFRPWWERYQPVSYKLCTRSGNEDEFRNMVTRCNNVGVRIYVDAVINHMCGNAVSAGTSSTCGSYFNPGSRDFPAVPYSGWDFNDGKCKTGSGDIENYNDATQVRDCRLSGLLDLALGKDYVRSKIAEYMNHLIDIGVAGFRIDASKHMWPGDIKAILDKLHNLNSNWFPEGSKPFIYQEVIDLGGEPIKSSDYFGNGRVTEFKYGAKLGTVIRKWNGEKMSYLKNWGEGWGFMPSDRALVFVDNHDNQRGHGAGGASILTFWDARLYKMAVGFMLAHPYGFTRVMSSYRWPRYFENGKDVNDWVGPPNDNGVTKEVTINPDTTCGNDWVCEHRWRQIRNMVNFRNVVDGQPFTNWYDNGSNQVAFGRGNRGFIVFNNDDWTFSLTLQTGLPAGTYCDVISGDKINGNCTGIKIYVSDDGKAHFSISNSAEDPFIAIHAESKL
In words: Digestibility by salivary α-amylase.

The next data set relates to Pancreas α-amylase. As to the kind of experiment: Digestibility by pancreas α-amylase.
Data set [1] is described as follows: Digestibility by artificial gastric juice.
From the text: (§2) 43, 23-29 (1990), the digestibility of CMM by salivary α-amylase, artificial gastric juice, pancreas amylase, and small intestinal enzymes were investigated using the powdery hydrous crystalline CMM, obtained by the method in Experiment 14.
The test system of the next data set is Small intestinal enzymes. As to the kind of experiment: Digestibility by small intestinal enzymes.
Data set [2] in a line: Amino-carbonyl reaction with glycine. The settings on record: […] (w/v) saccharide, 0.5% (w/v) glycine, pH 8.0, 100° C. The format is physicochemical. The protocol: (§1) As a control, an aqueous solution containing maltose and glycine was prepared in the same manner using maltose except for the powdery hydrous crystalline CMM. Four milliliters each of the solution was put in a glass tube, sealed and then heated at 100° C. for 30, 60, or 90 min. After cooling the solutions, the degrees of coloring of the solutions were measured to estimate the degree of amino-carbonyl reaction. The degree of coloring was defined as an absorbance at 480 nm using a 1 cm-cell.

Data set [3] in a line: Amino-carbonyl reaction with polypeptone. The settings on record: 5% (w/v) saccharide, 5% (w/v) polypeptone, 120° C., blank subtracted. The format is physicochemical. The protocol:
as §1, with “polypeptone” for “glycine”, “120°” for “100°”, “reaction. As a blank test, a solution containing polypeptone only was heated in the same manner.” for “reaction.”, “cm-cell after subtracting the absorbance of the blank test.” for “cm-cell.”

A short description of data set [4]: Isoelectric point of CMM-forming enzyme. The format is physicochemical, Arthrobacter globiformis M6.
Method: The purified enzyme preparation of CMM-forming enzyme, obtained by the method in Experiment 4, was subjected to polyacrylamide gel isoelectrofocusing containing 2% (w/v) “AMPHOLINE”, a carrier ampholyte commercialized by Amersham Biosciences, Tokyo, Japan and isoelectric point of CMM-forming enzyme was measured compare with isoelectric point markers, commercialized by Amersham Biosciences, Tokyo, Japan.
Data set [5] is described as follows: Optimum temperature and optimum pH of the enzyme reaction. The format is biochemical, Arthrobacter globiformis M6. On the procedure:
The enzyme activity of CMM-forming enzyme of the present invention can be assayed as follows: A substrate solution is prepared by dissolving soluble starch in 50 mM acetate buffer (pH 6.0) containing 2 mM CaCl2 to give a concentration of 2% (w/v). A half milliliter of an enzyme solution is added to 0.5 ml of the substrate solution, and the mixture solution is incubated at 40° C. for 30 min. After stopping the reaction by heating at about 100° C. for 10 min, the reaction mixture is admixed with 4,000 units/g-solid of α-glucosidase and 250 units/g-solid of glucoamylase to hydrolyze remaining soluble starch and by-products, oligosaccharides, and followed by the enzyme treatment at 50° C. for 1 hour. The amount of CMM contained in the treated mixture is determined by HPLC described later in Experiment 1. One unit activity of CMM-forming enzyme is defined as the amount of enzyme which forms one μmole of CMM per minute under the above conditions.
The results are in FIG. 5 (Optimum temperature) and in FIG. 6 (Optimum pH), respectively.

Where [6] appears, read: recombinant enzyme purified from transformant BMB1.

From the text for Pancreas α-amylase: as §2
From the text for Salivary α-amylase: as §2
From the text for Small intestinal enzymes: as §2

For `OC[C@@H](O)[C@@H](O[C@H]1O[C@H](CO)[C@@H](O)[C@H](O)[C@H]1O)[C@H](O)[C@@H](O)CO` [Maltitol, maltitol], in the data set with CMM-forming enzyme, the Action result is recorded as “−”. Besides, the “Degradation rate (%)” value came to 0% at Salivary α-amylase, 0% in the data set with Pancreas α-amylase, 0% in data set [1] and 4% with Small intestinal enzymes.

`OC[C@H]1O[C@H](O[C@H]2[C@H](O)[C@@H](O)C(O)O[C@@H]2CO)[C@H](O)[C@@H](O)[C@@H]1O` (mixture of isomers) [Maltose, maltose]: the Action result with CMM-forming enzyme was “−”. Also, the “Degree of coloring (A480 nm)” value in data set [2] (heating time 0 min) turned out to be 0.00; in [2] (heating time 30 min), 0.02; in data set [2] (heating time 60 min), 0.08; in [2] (heating time 90 min) it was 0.17; in [3] (heating time 0 min) it was 0.00; in [3] (heating time 30 min), 0.10. Besides, the results for the “Degree of coloring (A480 nm)” value in data set [3] (heating time 60 min) and in data set [3] (heating time 90 min) were 0.30 and 0.62, respectively.

B1: CMM-forming enzyme: enzyme from Arthrobacter globiformis M6 acting on α-1,4 glucans of polymerization degree 3 or higher to form CMM; SEQ ID NO:2 (protein, listed as Arthrobacter globiformis)
chain: DPTTSPGPLAEGDVIYQVLVDRFEDGDPTNNDQGDGEYDPSDLGFYHGGDWAGLTDRLDYIADLGVTAIWLSPVSEQQPLSRDGLEASYHGYFTRDFATPNEHFGDRAELQELIDTAHDLGLKMILDVVPNHTADYLAGTSTTYSPSTYKPASPLDDASYFHHAGDCLFNGLETQTQIENCDLGGLDDLDQSNPVVSSHLMSTYKDWVDMGFDGIRVDAARSVPKPWLADFEAEMGVPTFGEVFVGDVDYVSEYQDYEWGVLDFPYFFTVREAFSADTDMNKLGDLFDQDSKYANPNRLETFLDNHDRARFLTWADDNYQRLRSGLTFLLTSRGVPVIYYGTEQADDGNGNPYEVPIANKDNRKDMESFDQNSNLYKHIQRLTAIKAAYPALQVGTQREMWSDTSVYGFSRRVDSTGAEAMTFSSNSWTTQTRTVPLRAESSITVGTTLTNLMNTGDTVTVTAGGVTGKQITVSLGEHESKVYAPGTPVSAYSPEARNTTKIRVHYNVGLGHSIAIRGDEYPFTWTSGRGARNVASDVWEFEVERIPDGETFQFKPLIDDVTWSTGGNFTGTGGDVIDIYPTF
With B1, the “isoelectric point (pI)” value in [4] (purified enzyme from Arthrobacter globiformis M6, polyacrylamide gel isoelectrofocusing) is 3.6±0.5. For the same molecule, in data set [4] (setting [6]), the isoelectric point result is listed as “about 3.6±0.5”. The “optimum pH” value in data set [5] (purified enzyme from M6, reacted at 40° C. for 30 min) is listed as 5.5 to 6.5. The same molecule gave an optimum temperature in data set [5] (purified enzyme from M6, reacted at pH 6.0 for 30 min) of 50 to 55 °C. In data set [5] (setting [6]), the “optimum pH” value was 5.5 to 6.5 and the “optimum temperature of CMM-forming enzyme activity” value fell in the range of 50 to 55 °C.
